Reference: paper PMC6199744, “Development of Chemical Proteomics for the Folateome and Analysis of the Kinetoplastid Folateome” (ACS Infectious Diseases, 2018)
Like-named read-outs stand apart in the source and are kept apart here.

Experiments:
Format in all cases: binding
[1] = target: T1, HeLa cell extract proteins (Homo sapiens, UniProt Q15120)
T1 construct: endogenous in cells; host or cells: HeLa cell extract

[2] = target: T2, HeLa cell extract proteins (Homo sapiens, UniProt Q12931)
T2 construct: endogenous in cells; host or cells: HeLa cell extract
T2 sequence (Q12931 60-704): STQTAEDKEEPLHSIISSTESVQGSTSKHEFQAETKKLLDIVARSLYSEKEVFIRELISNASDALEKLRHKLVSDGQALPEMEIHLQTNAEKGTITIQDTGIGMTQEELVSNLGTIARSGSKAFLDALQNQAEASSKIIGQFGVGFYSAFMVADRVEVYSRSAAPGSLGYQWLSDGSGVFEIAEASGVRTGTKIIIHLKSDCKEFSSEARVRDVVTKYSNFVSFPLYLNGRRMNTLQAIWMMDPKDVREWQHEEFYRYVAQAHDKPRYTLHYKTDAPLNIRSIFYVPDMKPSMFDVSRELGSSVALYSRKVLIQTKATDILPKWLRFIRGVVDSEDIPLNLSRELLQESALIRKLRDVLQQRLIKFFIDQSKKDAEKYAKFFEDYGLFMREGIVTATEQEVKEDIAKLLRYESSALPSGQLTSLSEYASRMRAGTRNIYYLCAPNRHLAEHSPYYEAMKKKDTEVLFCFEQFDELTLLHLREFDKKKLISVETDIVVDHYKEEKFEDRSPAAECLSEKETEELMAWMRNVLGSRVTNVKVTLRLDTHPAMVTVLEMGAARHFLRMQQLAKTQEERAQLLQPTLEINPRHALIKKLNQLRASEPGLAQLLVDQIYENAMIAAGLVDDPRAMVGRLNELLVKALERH

[3] = target: T3, HeLa cell extract proteins (Homo sapiens, UniProt Q9UBV8)
T3 construct: endogenous in cells; host or cells: HeLa cell extract
T3 sequence (Q9UBV8 1-284): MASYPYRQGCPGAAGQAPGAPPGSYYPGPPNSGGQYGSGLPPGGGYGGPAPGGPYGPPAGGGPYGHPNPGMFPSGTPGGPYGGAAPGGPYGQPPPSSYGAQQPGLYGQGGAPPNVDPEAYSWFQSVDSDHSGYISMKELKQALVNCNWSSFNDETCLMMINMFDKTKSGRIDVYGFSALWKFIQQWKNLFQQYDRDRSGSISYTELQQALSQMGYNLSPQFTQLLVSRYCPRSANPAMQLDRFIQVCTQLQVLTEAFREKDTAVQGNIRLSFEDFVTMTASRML

[4] = target: T4, HeLa cell extract proteins (Homo sapiens, UniProt P53611)
T4 construct: endogenous in cells; host or cells: HeLa cell extract
T4 sequence (P53611 1-331): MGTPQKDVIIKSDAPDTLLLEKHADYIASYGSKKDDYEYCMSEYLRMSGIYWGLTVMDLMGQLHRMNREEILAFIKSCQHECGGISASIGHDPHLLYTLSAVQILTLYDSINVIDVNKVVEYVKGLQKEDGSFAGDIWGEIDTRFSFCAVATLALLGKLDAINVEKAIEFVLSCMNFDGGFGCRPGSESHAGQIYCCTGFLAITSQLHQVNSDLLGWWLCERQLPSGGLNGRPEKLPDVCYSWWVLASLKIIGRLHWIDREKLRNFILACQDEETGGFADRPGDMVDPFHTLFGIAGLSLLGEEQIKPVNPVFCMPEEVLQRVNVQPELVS

[5] = target: T5, HeLa cell extract proteins (Homo sapiens, UniProt P20618)
T5 construct: endogenous in cells; host or cells: HeLa cell extract
T5 sequence (P20618 29-241): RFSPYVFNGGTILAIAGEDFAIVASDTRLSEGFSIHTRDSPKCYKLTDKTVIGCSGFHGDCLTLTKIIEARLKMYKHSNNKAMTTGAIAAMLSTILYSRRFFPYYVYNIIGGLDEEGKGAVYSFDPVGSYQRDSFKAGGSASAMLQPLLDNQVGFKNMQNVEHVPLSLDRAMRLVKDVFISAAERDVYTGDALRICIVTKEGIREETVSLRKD

[6] = target: T6, HeLa cell extract proteins (Homo sapiens, UniProt Q99832)
T6 construct: endogenous in cells; host or cells: HeLa cell extract
T6 sequence (Q99832 1-543): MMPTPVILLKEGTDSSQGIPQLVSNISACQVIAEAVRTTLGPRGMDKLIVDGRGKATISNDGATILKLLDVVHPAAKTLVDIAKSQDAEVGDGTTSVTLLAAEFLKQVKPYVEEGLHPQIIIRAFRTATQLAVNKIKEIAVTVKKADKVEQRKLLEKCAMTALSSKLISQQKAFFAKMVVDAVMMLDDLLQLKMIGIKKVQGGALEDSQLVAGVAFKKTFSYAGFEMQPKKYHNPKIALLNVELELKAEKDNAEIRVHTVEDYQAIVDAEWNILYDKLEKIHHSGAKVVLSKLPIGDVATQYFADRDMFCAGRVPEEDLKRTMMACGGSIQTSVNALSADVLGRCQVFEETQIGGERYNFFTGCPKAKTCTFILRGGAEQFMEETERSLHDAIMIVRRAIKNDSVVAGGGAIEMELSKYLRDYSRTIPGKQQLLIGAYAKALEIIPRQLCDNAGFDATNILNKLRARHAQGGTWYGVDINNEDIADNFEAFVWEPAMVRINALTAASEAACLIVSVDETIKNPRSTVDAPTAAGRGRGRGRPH

T1 sequence (Q15120 whole entry): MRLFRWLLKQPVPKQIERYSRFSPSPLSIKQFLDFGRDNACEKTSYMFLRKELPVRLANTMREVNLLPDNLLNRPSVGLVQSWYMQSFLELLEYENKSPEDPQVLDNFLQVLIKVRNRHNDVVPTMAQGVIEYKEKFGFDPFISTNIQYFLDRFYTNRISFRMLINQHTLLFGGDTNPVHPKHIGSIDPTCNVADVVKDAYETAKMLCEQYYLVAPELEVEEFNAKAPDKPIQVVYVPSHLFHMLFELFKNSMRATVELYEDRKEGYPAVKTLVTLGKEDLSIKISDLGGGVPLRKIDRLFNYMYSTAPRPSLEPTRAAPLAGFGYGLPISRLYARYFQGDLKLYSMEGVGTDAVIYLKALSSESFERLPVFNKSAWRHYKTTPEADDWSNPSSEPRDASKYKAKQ

Row | SMILES | fold changes relative to vehicle control ([1]; captured protein PDK3, HeLa) | fold changes relative to vehicle control ([2]; protein TRAP1, HeLa) | fold changes relative to vehicle control ([3]; HeLa, protein PEF1) | fold changes relative to vehicle control ([4]; protein RABGGTB, HeLa) | fold changes relative to vehicle control ([5]; protein PSMB1, HeLa) | fold changes relative to vehicle control ([6]; protein CCT7, HeLa) | fold changes relative to vehicle control ([1]; HeLa, protein PDK3) | fold changes relative to vehicle control ([3]; HeLa, captured protein PEF1) | fold changes relative to vehicle control ([4]; HeLa, captured protein RABGGTB) | fold changes relative to vehicle control ([5]; HeLa, protein PSMB1) | fold changes relative to vehicle control ([6]; HeLa, protein CCT7) | fold changes relative to vehicle control [1] | fold changes relative to vehicle control [2] | fold changes relative to vehicle control [3] | fold changes relative to vehicle control [4] | fold changes relative to vehicle control [5] | fold changes relative to vehicle control [6]
1 | CCCCCCOc1cccc(Cc2cnc(N)nc2N)c1 [compound 2] | 0.49 | 1.77 | 0.76 | 1.01 | 1.28 | 1.62 |  |  |  |  |  |  |  |  |  |  | 
2 | NCCOCCOCC(=O)Nc1nc2ncc(CNc3ccc(C(=O)NC(CCC(=O)O)C(=O)O)cc3)nc2c(=O)[nH]1 (stereo not drawn) [compound 6] |  | 1.2 |  |  |  |  | 0.87 | 0.87 | 0.91 | 0.94 | 1.2 |  |  |  |  |  | 
3 | CCCCCCOc1ccc(Cc2cnc(N)nc2N)cc1 [compound 1] | 1 | 1.27 | 0.88 | 1.07 | 1.05 | 1.08 |  |  |  |  |  |  |  |  |  |  | 
4 | Nc1nc2c(c(=O)[nH]1)N(C=O)C(CNc1ccc(C(=O)N[C@@H](CCC(=O)O)C(=O)O)cc1)CN2 (stereo partly drawn) [LEU, leucovorin] |  | 0.95 |  |  |  |  | 0.93 | 0.95 | 1.01 | 0.96 | 1.01 |  |  |  |  |  | 
5 | NCCCNc1ccc(C(=O)NC(CCC(=O)O)C(=O)O)cc1 (stereo not drawn) [compound 7] |  | 1.01 |  |  |  |  | 0.99 | 0.99 | 1.03 | 0.86 | 1.11 |  |  |  |  |  | 
6 | Nc1nc2[nH]cc(CCc3ccc(C(=O)N[C@@H](CCC(=O)O)C(=O)O)cc3)c2c(=O)[nH]1 [PTX, pemetrexed] |  |  |  |  |  |  |  |  |  |  |  | 0.9 | 1.02 | 0.99 | 0.97 | 0.78 | 1.01
7 | Nc1nc2cccc(-c3ccccc3)c2n1Cc1ccc(Cl)c(Cl)c1 [compound 3] | 0.86 | 1.06 | 1.06 | 1.06 | 0.92 | 0.98 |  |  |  |  |  |  |  |  |  |  | 
